Columns and labels:
IRAK-1 = target: T1, IRAK-1 (Homo sapiens, UniProt P51617); assay: Test for the inhibition of IRAK1 (autophosphorylation, flashplate); assay type: biochemical; settings: enzyme
T1 construct: His6 (N); Dr.Jaekel Pool B, 232Y08C1.IRK
In short: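 His6-IRAK1 (5.1 nM) autophosphorylation with 1 μM ATP plus ^33P-ATP, 180 min at 22° C, read as incorporated radioactivity. Blank with 1 μM staurosporin was subtracted and activity expressed as % of no-compound control. IC50 derived from the dilution series.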

PDK1 [1] = target: T2, PDK1 (Homo sapiens, UniProt O15530); assay: IC50 PDK1 (cell); assay type: cell-based
T2 construct: endogenous in cells; host or cells: commercially available colon carcinoma, ovary, prostate or breast cell lines (none named)
T2 sequence (O15530 1-556): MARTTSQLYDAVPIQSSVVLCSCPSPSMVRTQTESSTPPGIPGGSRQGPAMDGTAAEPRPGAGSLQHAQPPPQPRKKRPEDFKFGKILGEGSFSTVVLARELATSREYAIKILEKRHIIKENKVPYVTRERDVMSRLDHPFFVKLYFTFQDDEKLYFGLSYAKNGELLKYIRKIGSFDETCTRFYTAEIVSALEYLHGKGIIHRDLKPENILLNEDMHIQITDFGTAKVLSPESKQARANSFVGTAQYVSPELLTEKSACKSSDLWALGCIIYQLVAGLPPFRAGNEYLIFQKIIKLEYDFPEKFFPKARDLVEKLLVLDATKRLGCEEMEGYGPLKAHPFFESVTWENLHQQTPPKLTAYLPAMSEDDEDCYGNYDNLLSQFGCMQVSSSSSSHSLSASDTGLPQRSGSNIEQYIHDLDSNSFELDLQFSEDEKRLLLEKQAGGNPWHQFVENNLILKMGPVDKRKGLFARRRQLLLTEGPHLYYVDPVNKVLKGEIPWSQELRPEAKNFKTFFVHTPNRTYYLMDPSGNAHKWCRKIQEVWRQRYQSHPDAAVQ
Procedure: The cells are sown in a suitable cell density in microtitre plates (96-well format) and the test substances are added in the form of a concentration series. After four further days of cultivation in serum-containing medium, the tumour cell proliferation/tumour cell vitality can be determined by means of an Alamar Blue test system. A defined number of cells (for example 2000 cells) per culture/well in a volume of 180 μl of culture medium are sown in microtitre plates (96 well cell-culture plates) using a multichannel pipette. The cells are subsequently cultivated in a CO2 incubator (37° C. and 10% CO2). The test substances are dissolved, for example, in DMSO and subsequently employed in corresponding concentration (if desired in a dilution series) in the cell culture medium. The dilution steps can be adapted depending on the efficiency of the active ingredients and the desired spread of the concentrations. Cell culture medium is added to the test substances in corresponding concentrations. The addition of the test substances to the cells can take place on the same day as the sowing of the cells. To this end, in each case 20 μl of substance solution from the predilution plate are added to the cultures/wells. The cells are cultivated for a further 4 days at 37° Celsius and 10% CO2. In each case, 20 μl of Alamar Blue reagent are added per well, and the microtitre plates are incubated, for example, for a further seven hours in a CO2 incubator (at 37° C. and 10% CO2). The plates are measured in a reader with a fluorescence filter at a wavelength of 540 nm. The plates can be shaken gently immediately before the measurement. The absorbance value of the medium control (no cells and test substances used) is subtracted from all other absorbance values. The controls (cells without test substance) are set equal to 100 percent, and all other absorbance values are set in relation thereto (for example in % of control): Calculation: 100*(value with cells and test substance−value of medium control)/(value with cells−value of medium control) IC50 values (50% inhibition) are determined with the aid of statistics programs, such as, for example, RS1.

PDK1 [2] = target: T3, PDK1 (Homo sapiens, UniProt O15530); assay: Test for the inhibition of PDK1 (flashplate, 33P-ATP); assay type: biochemical; settings: enzyme
T3 construct: His6 (N)
T3 sequence (O15530 51-556 limits assumed): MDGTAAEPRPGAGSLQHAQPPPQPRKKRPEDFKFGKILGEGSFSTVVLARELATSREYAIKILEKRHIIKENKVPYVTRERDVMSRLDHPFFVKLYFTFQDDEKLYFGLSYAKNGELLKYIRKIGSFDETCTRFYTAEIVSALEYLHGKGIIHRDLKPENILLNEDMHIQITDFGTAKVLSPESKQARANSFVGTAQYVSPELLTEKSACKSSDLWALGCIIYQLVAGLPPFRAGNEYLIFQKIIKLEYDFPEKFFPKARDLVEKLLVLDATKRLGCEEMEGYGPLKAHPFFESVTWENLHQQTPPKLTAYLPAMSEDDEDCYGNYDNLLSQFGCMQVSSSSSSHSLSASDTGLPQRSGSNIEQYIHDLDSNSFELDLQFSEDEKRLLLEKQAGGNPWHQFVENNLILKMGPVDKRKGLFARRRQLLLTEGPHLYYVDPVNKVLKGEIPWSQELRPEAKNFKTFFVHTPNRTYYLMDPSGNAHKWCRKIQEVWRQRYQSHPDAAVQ
In short: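 His6-PDK1(1-50) (3.4 nM) incubated with biotinylated peptide substrate (400 nM), 4 μM ATP plus 33P-ATP and compound, 60 min at 30 °C. Incorporated radioactivity counted; blank with 100 nM staurosporine subtracted, activity as % of compound-free control. IC50 from dose series.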

T1 sequence (P51617 whole entry, species assumed): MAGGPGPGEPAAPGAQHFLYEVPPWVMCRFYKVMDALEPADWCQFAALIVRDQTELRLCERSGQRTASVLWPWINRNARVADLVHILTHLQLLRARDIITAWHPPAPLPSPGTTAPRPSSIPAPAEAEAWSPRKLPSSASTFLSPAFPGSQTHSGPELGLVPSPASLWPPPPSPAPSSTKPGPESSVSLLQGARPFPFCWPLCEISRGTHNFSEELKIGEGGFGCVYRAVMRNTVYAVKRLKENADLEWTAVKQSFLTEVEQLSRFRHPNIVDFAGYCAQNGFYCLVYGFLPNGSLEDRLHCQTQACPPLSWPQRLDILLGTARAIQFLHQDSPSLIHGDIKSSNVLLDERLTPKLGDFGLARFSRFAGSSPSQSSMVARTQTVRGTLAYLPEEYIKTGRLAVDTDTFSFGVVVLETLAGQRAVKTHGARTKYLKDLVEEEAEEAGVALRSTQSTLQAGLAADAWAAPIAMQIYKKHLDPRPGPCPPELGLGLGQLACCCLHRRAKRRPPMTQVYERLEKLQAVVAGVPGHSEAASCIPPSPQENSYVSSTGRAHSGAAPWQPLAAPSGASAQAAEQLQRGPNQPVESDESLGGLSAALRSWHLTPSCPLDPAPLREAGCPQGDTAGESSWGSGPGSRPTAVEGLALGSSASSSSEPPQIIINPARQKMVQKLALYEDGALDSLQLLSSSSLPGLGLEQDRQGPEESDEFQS

SMILES	IC50 (IRAK-1) [nM]	IC50 (PDK1 [1]) [nM]	IC50 (PDK1 [2]) [nM]
COc1ccc2nc(-c3cc(-c4cnn(C5CCNCC5)c4)cnc3N)[nH]c2c1 [Compound A92, 3-(6-Methoxy-1H-benzimidazol-2-yl)-5-(1-piperidin-4-yl-1H-pyrazol-4-yl)pyridin-2-ylamine]	1 to 100	> 10000	1 to 100
COc1ccc2nc(-c3cc(-c4ccc(C(=O)NC5CCN(C)CC5)s4)cnc3N)[nH]c2c1 [Compound A133, N-(1-Methylpiperidin-4-yl)-5-[6-amino-5-(6-methoxy-1H-benzimidazol-2-yl)pyridin-3-yl]thiophene-2-carboxamide]	1 to 100	> 10000	1 to 100
Cn1cc(-c2cnc(N)c(-c3nc4cccc(CO)c4[nH]3)c2)cn1 [Compound A52]	100 to 10000	100 to 10000	1 to 100
COc1ccc2nc(-c3cc(-c4ccsc4)cnc3N)[nH]c2c1 [Compound A144, 3-(6-methoxy-1H-benzimidazol-2-yl)-5-thiophen-3-ylpyridin-2-ylamine]	100 to 10000	> 10000	1 to 100
COc1ccc2nc(-c3cc(-c4cnn(C)c4)cnc3N)[nH]c2c1 [Compound A43]	100 to 10000	> 10000	1 to 100
CC1CC(=O)NN=C1c1ccc2nc(-c3cc(-c4cnn(C)c4)cnc3N)[nH]c2c1 (racemic) [Compound A1, 6-{2-[2-amino-5-(1-methyl-1H-pyrazol-4-yl)pyridin-3-yl]-3H-benzimidazol-5-yl}-5-methyl-4,5-dihydro-2H-pyridazin-3-one]	100 to 10000	100 to 10000	1 to 100
Cn1cc(-c2cnc(N)c(-c3nc4ccc(C(=O)NCCc5ccc(F)c(F)c5)cc4[nH]3)c2)cn1 [Compound A128, N-[2-(3,4-difluorophenyl)ethyl]-2-[2-amino-5-(1-methyl-1H-pyrazol-4-yl)pyridin-3-yl]-3H-benzimidazole-5-carboxamide]	100 to 10000	> 10000	1 to 100

From patent publication US8648201B2, “Aminopyridine derivatives for treating tumors and inflammatory diseases” (MERCK PATENT GmbH, priority 2009, dated 2014)
